Measured values reported in paper PMC11048482 (Biomolecules, 2024).
Where two headings read alike, the source gives them in different places.

Target: T1, SP_0166 (Streptococcus pneumoniae, UniProt A0A0H2UNA7)
T1 construct: full length, 368 residues, 42,757 Da; pET-28a(+) BamHI/XhoI, C-terminal 6xHis tag kept; expressed in E. coli BL21(DE3)
Assay: LC-MS/MS of agmatine formed from arginine
Assay type: biochemical

T1 sequence (A0A0H2UNA7 entry or part of it): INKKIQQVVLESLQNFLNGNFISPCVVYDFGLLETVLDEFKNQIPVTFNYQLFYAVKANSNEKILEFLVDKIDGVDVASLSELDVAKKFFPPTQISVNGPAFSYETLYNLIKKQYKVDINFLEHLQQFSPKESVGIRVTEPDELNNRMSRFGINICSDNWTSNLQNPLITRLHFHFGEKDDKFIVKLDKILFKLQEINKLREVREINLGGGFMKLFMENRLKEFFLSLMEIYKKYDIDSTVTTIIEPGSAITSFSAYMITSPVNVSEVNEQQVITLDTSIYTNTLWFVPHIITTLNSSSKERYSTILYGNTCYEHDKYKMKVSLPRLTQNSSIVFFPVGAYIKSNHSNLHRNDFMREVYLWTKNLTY

Structure (SMILES) | IC50 (read-out: DFMA IC50) [mM] | IC50 (read-out: DFMO IC50) [mM]
N=C(N)NCCCC(N)(C(=O)O)C(F)F (centres unmarked) [DFMA] | 0.0216 ± 0.0104 | –
NCCCC(N)(C(=O)O)C(F)F (centres unmarked) [DFMO] | – | 27 ± 4.5
